From ChEMBL document CHEMBL1146652, “Synthesis and CB1 receptor activities of novel arachidonyl alcohol derivatives” (Bioorg Med Chem Lett, 2004) come the findings set out here.

In test [1] the target is Cannabinoid receptor 1 (Rattus norvegicus) (UniProt P20272). Kind of test: Maximal response of cannabinoid receptor to compound was evaluated using [35S]GTP-gamma-S-binding studies. In kind it is functional. Background: GTPγS is a poorly hydrolysed GTP analogue; its binding reports G protein activation.
Another test addresses Cannabinoid receptor 1 (Rattus norvegicus, UniProt P20272). Description: Cannabinoid receptor 1 dependent activity of compound was evaluated by using [35S]GTP-gamma-S-binding studies. The class given is functional.

Chain of Cannabinoid receptor 1 (Rattus norvegicus) (P20272 whole entry): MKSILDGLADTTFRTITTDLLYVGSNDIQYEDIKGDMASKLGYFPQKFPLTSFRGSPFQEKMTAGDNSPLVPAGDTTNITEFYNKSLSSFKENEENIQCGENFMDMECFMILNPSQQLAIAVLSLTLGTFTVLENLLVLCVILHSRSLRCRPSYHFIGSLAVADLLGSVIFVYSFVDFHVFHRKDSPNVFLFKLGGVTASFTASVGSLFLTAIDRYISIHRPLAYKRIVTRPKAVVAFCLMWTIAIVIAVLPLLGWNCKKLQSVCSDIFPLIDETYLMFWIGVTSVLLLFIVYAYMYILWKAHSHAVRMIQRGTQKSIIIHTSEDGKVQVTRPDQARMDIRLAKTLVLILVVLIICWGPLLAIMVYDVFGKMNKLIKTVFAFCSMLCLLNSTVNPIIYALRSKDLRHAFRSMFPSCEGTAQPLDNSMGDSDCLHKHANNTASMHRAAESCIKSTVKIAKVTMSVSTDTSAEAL
Chain of Cannabinoid receptor 1 (P20272 whole entry): as above

As to `CCCCC/C=C\C/C=C\C/C=C\C/C=C\CCCC(=O)NCCO`, the Emax (as a rule, the size of the effect at its maximum, as opposed to the concentration needed) in test [1] stood at 380%.
Turning to `CCCCC/C=C\C/C=C\C/C=C\C/C=C\CCCCOC(=O)[C@H](O)CO`, the Emax in test [1] amounted to 301%. Further, on Cannabinoid receptor 1, the EC50 (commonly the concentration needed to bring the measured effect to its halfway point) was 25.1 µM.
The like results for `CCCCC/C=C\C/C=C\C/C=C\C/C=C\CCCCOC(=O)[C@@H](O)CO` were, in that order, 278% and 39.8 µM.
